Values joined by “and” are separate entries in the source; they are usually repeats but may differ in a detail not shown here. Equal values may be shown once.
Tested on: 855422-203-R-J1-PDC complex spheroids, viability
Experiment: Anticancer human tumor 855422-203-R-J1-PDC patient-derived bladder carcinoma cell line growth inhibition [CLK]
Conditions: for viability, T/C: stronger effect = lower value; active = viability on the fitted dose curve at most 10% of control; inactive = the rest
In short: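 Patient-derived tumor cells grown as complex spheroids with HUVEC endothelial cells and mesenchymal stem cells, treated with drug combinations. Concentrations descend in half-log steps from near clinical Cmax, or from 10 microM if Cmax unknown.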

[1] = curve of first compound, second compound 0.0316 µM
[2] = curve of first compound, second compound 0.1 µM
[3] = curve of first compound, second compound 0.316 µM
[4] = curve of first compound, second compound 1 µM
[5] = curve of first compound, second compound 3.16 µM
[6] = curve of first compound, second compound 10 µM
[7] = second compound 0.0316 µM, first compound 0.0316 µM
[8] = second compound 0.0316 µM, first compound 0.1 µM
[9] = second compound 0.0316 µM, first compound 0.316 µM
[10] = second compound 0.0316 µM, first compound 1 µM
[11] = second compound 0.0316 µM, first compound 3.16 µM
[12] = second compound 0.0316 µM, first compound 10 µM
[13] = second compound 0.1 µM, first compound 0.0316 µM
[14] = second compound 0.1 µM, first compound 0.1 µM
[15] = second compound 0.1 µM, first compound 0.316 µM
[16] = second compound 0.1 µM, first compound 1 µM
[17] = second compound 0.1 µM, first compound 3.16 µM
[18] = second compound 0.1 µM, first compound 10 µM
[19] = second compound 0.316 µM, first compound 0.0316 µM
[20] = second compound 0.316 µM, first compound 0.1 µM
[21] = second compound 0.316 µM, first compound 0.316 µM
[22] = second compound 0.316 µM, first compound 1 µM
[23] = second compound 0.316 µM, first compound 3.16 µM
[24] = second compound 0.316 µM, first compound 10 µM
[25] = second compound 1 µM, first compound 0.0316 µM
[26] = second compound 1 µM, first compound 0.1 µM
[27] = second compound 1 µM, first compound 0.316 µM
[28] = second compound 1 µM, first compound 1 µM
[29] = second compound 1 µM, first compound 3.16 µM
[30] = second compound 1 µM, first compound 10 µM
[31] = second compound 3.16 µM, first compound 0.0316 µM
[32] = second compound 3.16 µM, first compound 0.1 µM
[33] = second compound 3.16 µM, first compound 0.316 µM
[34] = second compound 3.16 µM, first compound 1 µM
[35] = second compound 3.16 µM, first compound 3.16 µM
[36] = second compound 3.16 µM, first compound 10 µM
[37] = second compound 10 µM, first compound 0.0316 µM
[38] = second compound 10 µM, first compound 0.1 µM
[39] = second compound 10 µM, first compound 0.316 µM
[40] = second compound 10 µM, first compound 1 µM
[41] = second compound 10 µM, first compound 3.16 µM
[42] = second compound 10 µM, first compound 10 µM
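Also: spheroids exposed to drugs for seven days before readout.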
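For viability, T/C in this document: 100% = DMSO vehicle control wells.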

Nc1ccn(C2OC(CO)C(O)C2(F)F)c(=O)n1 (configuration not stated) + CN1CCN(c2cc(C(=O)Nc3cc4cc(-c5cnn(C)c5)ccc4cn3)ccn2)CC1
active: viability, T/C [11] 9.09% | viability, T/C [12] 6.12% | viability, T/C [16] 11.9% | viability, T/C [17] 5.33% | viability, T/C [18] 4.86% | viability, T/C [19] 4.07% | viability, T/C [20] 3.72% | viability, T/C [21] 4.47% | viability, T/C [22] 2.24% | viability, T/C [23] 1.5% | viability, T/C [24] 0.93% | viability, T/C [25] 1.32% | viability, T/C [26] 0.15% | viability, T/C [27] 2.17% | viability, T/C [28] 0.1% | viability, T/C [29] 0.13% | viability, T/C [30] 0.13% | viability, T/C [31] 0.98% | viability, T/C [32] 3.09% | viability, T/C [33] 0.39% | viability, T/C [34] 0.24% | viability, T/C [35] 1.1% | viability, T/C [36] 0.29% | viability, T/C [37] 0.28% | viability, T/C [38] 0.41% | viability, T/C [39] 0.24% | viability, T/C [40] 0.83% | viability, T/C [41] 0.25% | viability, T/C [42] 0.23%
< 31.6 nM: IC50 [1] | IC50 [2] | IC50 [3] | IC50 [4] | IC50 [5] | IC50 [6]
inactive: viability, T/C [7] 27.6% | viability, T/C [8] 15.1% | viability, T/C [9] 15.8% | viability, T/C [10] 11.4% | viability, T/C [13] 24.4% | viability, T/C [14] 15.4% | viability, T/C [15] 11.5%

COc1cccc2c1C(=O)c1c(O)c3c(c(O)c1C2=O)CC(O)(C(=O)CO)CC3OC1CC(N)C(O)C(C)O1 (configuration not stated)
< 31.6 nM: IC50 (curve of compound)
active: viability, T/C (compound 0.1 µM) 2.91% and 1.62% | viability, T/C (compound 0.316 µM) 1.09% and 1.08% | viability, T/C (compound 1 µM) 1.18% and 0.23% | viability, T/C (compound 3.16 µM) 0.29% and 0.47% | viability, T/C (compound 10 µM) 0.19% and 0.46%
inactive: viability, T/C (compound 0.0316 µM) 15.1% and 13.7%

C=CC(=O)N1CCN(c2nc(=O)n(-c3c(C)ccnc3C(C)C)c3nc(-c4c(O)cccc4F)c(F)cc23)C(C)C1 (configuration not stated) + CNC(=O)c1ccc(Nc2nc(OC3CCCC3)c3c(-c4ccc5nc(C)oc5c4)c[nH]c3n2)c(OC)c1
< 31.6 nM: IC50 [2] | IC50 [3] | IC50 [4] | IC50 [5] | IC50 [6]
> 10000 nM: IC50 [1]
inactive: viability, T/C [7] 78.8% | viability, T/C [8] 91.5% | viability, T/C [9] 104% | viability, T/C [10] 103% | viability, T/C [11] 179% | viability, T/C [12] 127% | viability, T/C [13] 47.5% | viability, T/C [14] 50.9% | viability, T/C [15] 45.8% | viability, T/C [16] 41.6% | viability, T/C [17] 43.5% | viability, T/C [18] 23.9% | viability, T/C [19] 21.1% | viability, T/C [20] 19% | viability, T/C [21] 21.8% | viability, T/C [22] 27% | viability, T/C [23] 22.7% | viability, T/C [24] 23.4% | viability, T/C [25] 21.2% | viability, T/C [26] 17.7% | viability, T/C [27] 21% | viability, T/C [28] 22.5% | viability, T/C [29] 21.5% | viability, T/C [30] 19.4% | viability, T/C [31] 16.2% | viability, T/C [32] 18.3% | viability, T/C [33] 18.6% | viability, T/C [34] 18.9% | viability, T/C [35] 17% | viability, T/C [36] 14.1% | viability, T/C [37] 19.4% | viability, T/C [38] 17.1% | viability, T/C [39] 19.5% | viability, T/C [40] 29.2% | viability, T/C [41] 17.6% | viability, T/C [42] 16.7%

CC1COCCN1c1cc(C2(S(C)(=N)=O)CC2)nc(-c2ccnc3[nH]ccc23)n1 (configuration not stated)
inactive: viability, T/C (compound 0.0316 µM) 127% and 114% | viability, T/C (compound 0.1 µM) 108% and 101% | viability, T/C (compound 0.316 µM) 115% and 113% | viability, T/C (compound 1 µM) 93.2% and 103% | viability, T/C (compound 3.16 µM) 32.1% and 23.6%
11.2% and 8.31%: viability, T/C (compound 10 µM)
2260 nM and 2160 nM: IC50 (curve of compound)

COC1C=CCC(C)C(C)S(=O)(=O)NC(=O)c2ccc3c(c2)N(CC2CCC21)CC1(CCCc2cc(Cl)ccc21)CO3 (configuration not stated)
inactive: viability, T/C (compound 0.0316 µM) 96% and 134% | viability, T/C (compound 0.1 µM) 105% and 90.2% | viability, T/C (compound 0.316 µM) 111% and 128% | viability, T/C (compound 1 µM) 103% and 137% | viability, T/C (compound 3.16 µM) 119% and 191%
6060 nM and 8070 nM: IC50 (curve of compound)
6.05% and 30.3%: viability, T/C (compound 10 µM)

CC(C)CC(NC(=O)C(Cc1ccccc1)NC(=O)c1cnccn1)B(O)O (configuration not stated)
< 0.949 nM: IC50 (curve of compound)
active: viability, T/C (compound 0.000949 µM) 2.8% and 2.47% | viability, T/C (compound 0.003 µM) 0.77% and 0.18% | viability, T/C (compound 0.00949 µM) 0.19% and 0.16% | viability, T/C (compound 0.03 µM) 0.36% and 0.17% | viability, T/C (compound 0.0949 µM) 0.46% and 0.15% | viability, T/C (compound 0.3 µM) 0.24% and 0.15%
